Test results taken from PubChem BioAssay (NCI).
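GI50 marks 50% less growth. TGI: concentration producing complete growth inhibition.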

Legend:
Test in all cases: NCI-60 cell line screen, 384-well format
786-0 renal = test system: 786-0 renal
A498 renal = test system: A498 renal
A549 NSCLC = test system: A549 NSCLC
ACHN renal = test system: ACHN renal
BT-549 breast = test system: BT-549 breast
CAKI-1 renal = test system: CAKI-1 renal
CCRF-CEM leukemia = test system: CCRF-CEM leukemia
COLO 205 colon = test system: COLO 205 colon
DU-145 prostate = test system: DU-145 prostate
EKVX NSCLC = test system: EKVX NSCLC
HCC-2998 colon = test system: HCC-2998 colon
HCT-15 colon = test system: HCT-15 colon
HL-60(TB) leukemia = test system: HL-60(TB) leukemia
HOP-62 NSCLC = test system: HOP-62 NSCLC
HOP-92 NSCLC = test system: HOP-92 NSCLC
HS 578T breast = test system: HS 578T breast
HT29 colon = test system: HT29 colon
K-562 leukemia = test system: K-562 leukemia
KM12 colon = test system: KM12 colon
LOX IMVI melanoma = test system: LOX IMVI melanoma
M14 melanoma = test system: M14 melanoma
MALME-3M melanoma = test system: MALME-3M melanoma
MCF7 breast = test system: MCF7 breast
MDA-MB-231 breast = test system: MDA-MB-231 breast
MDA-MB-435 melanoma = test system: MDA-MB-435 melanoma
MDA-MB-468 breast = test system: MDA-MB-468 breast
MOLT-4 leukemia = test system: MOLT-4 leukemia
NCI-H226 lung = test system: NCI-H226 lung
NCI-H23 lung = test system: NCI-H23 lung
NCI-H322M lung = test system: NCI-H322M lung
NCI-H460 NSCLC = test system: NCI-H460 NSCLC
NCI-H522 lung = test system: NCI-H522 lung
NCI/ADR-RES ovarian = test system: NCI/ADR-RES ovarian
OVCAR-3 ovarian = test system: OVCAR-3 ovarian
OVCAR-4 ovarian = test system: OVCAR-4 ovarian
OVCAR-5 ovarian = test system: OVCAR-5 ovarian
OVCAR-8 ovarian = test system: OVCAR-8 ovarian
PC-3 prostate = test system: PC-3 prostate
RPMI-8226 leukemia = test system: RPMI-8226 leukemia
SF-268 CNS = test system: SF-268 CNS
SF-295 CNS = test system: SF-295 CNS
SF-539 CNS = test system: SF-539 CNS
SK-MEL-28 melanoma = test system: SK-MEL-28 melanoma
SK-MEL-5 melanoma = test system: SK-MEL-5 melanoma
SK-OV-3 ovarian = test system: SK-OV-3 ovarian
SN12C renal = test system: SN12C renal
SNB-19 CNS = test system: SNB-19 CNS
SNB-75 CNS = test system: SNB-75 CNS
SR leukemia = test system: SR leukemia
SW-620 colon = test system: SW-620 colon
T-47D breast = test system: T-47D breast
TK-10 renal = test system: TK-10 renal
U251 glioblastoma = test system: U251 glioblastoma
UACC-257 melanoma = test system: UACC-257 melanoma
UACC-62 melanoma = test system: UACC-62 melanoma
UO-31 renal = test system: UO-31 renal

Work on `S=C(NCc1ccc2c(c1)OCO2)N1CCN(c2ncnc3c2oc2ccccc23)CC1` yielded a GI50 ([…]-0 renal) of 80.6 µM, a TGI (786-0 renal) greater than 100 µM and a GI50 (A498 renal) of 2.95 µM. The TGI (A498 renal) was greater than 100 µM, the GI50 (A549 NSCLC) was 9.14 µM and the TGI (A549 NSCLC) was greater than 100 µM. For the same molecule, the GI50 (ACHN renal) was greater than 100 µM, the TGI (ACHN renal) was greater than 100 µM and the GI50 (BT-549 breast) was 7.53 µM. For the same molecule, the TGI (BT-549 breast) was greater than 100 µM, the GI50 (CAKI-1 renal) was greater than 100 µM and the TGI (CAKI-1 renal) was greater than 100 µM. For the same molecule, the GI50 (CCRF-CEM leukemia) was 0.917 µM, the TGI (CCRF-CEM leukemia) was 3.63 µM and the GI50 (COLO 205 colon) was greater than 100 µM. The TGI (COLO 205 colon) was greater than 100 µM, the GI50 (DU-145 prostate) was greater than 100 µM and the TGI (DU-145 prostate) was greater than 100 µM. The GI50 (EKVX NSCLC) was 6.12 µM, the TGI (EKVX NSCLC) was greater than 100 µM and the GI50 (HCC-2998 colon) was 21.7 µM. For the same molecule, the TGI (HCC-2998 colon) was greater than 100 µM, the GI50 (HCT-15 colon) was 33.2 µM and the TGI (HCT-15 colon) was greater than 100 µM. For the same molecule, the GI50 (HL-60(TB) leukemia) was 3.18 µM, the TGI (HL-60(TB) leukemia) was 30.8 µM and the GI50 (HOP-62 NSCLC) was 2.78 µM. It also gave a TGI (HOP-62 NSCLC) greater than 100 µM, a GI50 (HOP-92 NSCLC) of 62.7 µM and a TGI (HOP-92 NSCLC) greater than 100 µM. For the same molecule, the GI50 (HS 578T breast) was 23.2 µM, the TGI (HS 578T breast) was greater than 100 µM and the GI50 (HT29 colon) was greater than 100 µM. For the same molecule, the TGI (HT29 colon) was greater than 100 µM, the GI50 (K-562 leukemia) was 1.62 µM and the TGI (K-562 leukemia) was greater than 100 µM. It also gave a GI50 (KM12 colon) greater than 100 µM, a TGI (KM12 colon) greater than 100 µM and a GI50 (LOX IMVI melanoma) of 3.02 µM. The TGI (LOX IMVI melanoma) was greater than 100 µM, the GI50 (M14 melanoma) was greater than 100 µM and the TGI (M14 melanoma) was greater than 100 µM. For the same molecule, the GI50 (MALME-3M melanoma) was greater than 100 µM, the TGI (MALME-3M melanoma) was greater than 100 µM and the GI50 (MCF7 breast) was 3.01 µM. The TGI (MCF7 breast) was greater than 100 µM, the GI50 (MDA-MB-231 breast) was 6.31 µM and the TGI (MDA-MB-231 breast) was greater than 100 µM. The GI50 (MDA-MB-435 melanoma) was 72.4 µM, the TGI (MDA-MB-435 melanoma) was greater than 100 µM and the GI50 (MDA-MB-468 breast) was 0.673 µM. The TGI (MDA-MB-468 breast) was 3.32 µM, the GI50 (MOLT-4 leukemia) was 1.48 µM and the TGI (MOLT-4 leukemia) was 4.8 µM. It also gave a GI50 (NCI-H226 lung) of 23.6 µM, a TGI (NCI-H226 lung) greater than 100 µM and a GI50 (NCI-H23 lung) of 1.87 µM. The TGI (NCI-H23 lung) was greater than 100 µM, the GI50 (NCI-H322M lung) was 2.55 µM and the TGI (NCI-H322M lung) was greater than 100 µM. It also gave a GI50 (NCI-H460 NSCLC) of 2.94 µM, a TGI (NCI-H460 NSCLC) of 9.25 µM and a GI50 (NCI-H522 lung) of 35.4 µM. For the same molecule, the TGI (NCI-H522 lung) was greater than 100 µM, the GI50 (NCI/ADR-RES ovarian) was 1.36 µM and the TGI (NCI/ADR-RES ovarian) was 6.54 µM. The GI50 (OVCAR-3 ovarian) was greater than 100 µM, the TGI (OVCAR-3 ovarian) was greater than 100 µM and the GI50 (OVCAR-4 ovarian) was 5.77 µM. The TGI (OVCAR-4 ovarian) was greater than 100 µM, the GI50 (OVCAR-5 ovarian) was greater than 100 µM and the TGI (OVCAR-5 ovarian) was greater than 100 µM. The GI50 (OVCAR-8 ovarian) was 3.04 µM, the TGI (OVCAR-8 ovarian) was greater than 100 µM and the GI50 (PC-3 prostate) was 67.6 µM. For the same molecule, the TGI (PC-3 prostate) was greater than 100 µM, the GI50 (RPMI-8226 leukemia) was 1.79 µM and the TGI (RPMI-8226 leukemia) was 89.1 µM. For the same molecule, the GI50 (SF-268 CNS) was greater than 100 µM, the TGI (SF-268 CNS) was greater than 100 µM and the GI50 (SF-295 CNS) was greater than 100 µM. The TGI (SF-295 CNS) was greater than 100 µM, the GI50 (SF-539 CNS) was greater than 100 µM and the TGI (SF-539 CNS) was greater than 100 µM. It also gave a GI50 (SK-MEL-28 melanoma) greater than 100 µM, a TGI (SK-MEL-28 melanoma) greater than 100 µM and a GI50 (SK-MEL-5 melanoma) of 1.06 µM. For the same molecule, the TGI (SK-MEL-5 melanoma) was 2.69 µM, the GI50 (SK-OV-3 ovarian) was 6.63 µM and the TGI (SK-OV-3 ovarian) was greater than 100 µM. For the same molecule, the GI50 (SN12C renal) was greater than 100 µM, the TGI (SN12C renal) was greater than 100 µM and the GI50 (SNB-19 CNS) was greater than 100 µM. The TGI (SNB-19 CNS) was greater than 100 µM, the GI50 (SNB-75 CNS) was greater than 100 µM and the TGI (SNB-75 CNS) was greater than 100 µM. The GI50 (SR leukemia) was 0.49 µM, the TGI (SR leukemia) was 3.36 µM and the GI50 (SW-620 colon) was greater than 100 µM. It also gave a TGI (SW-620 colon) greater than 100 µM, a GI50 (T-47D breast) of 0.593 µM and a TGI (T-47D breast) of 8.23 µM. The GI50 (TK-10 renal) was 71.6 µM, the TGI (TK-10 renal) was greater than 100 µM and the GI50 (U251 glioblastoma) was 8.72 µM. The TGI (U251 glioblastoma) was greater than 100 µM, the GI50 (UACC-257 melanoma) was 6.23 µM and the TGI (UACC-257 melanoma) was greater than 100 µM. The GI50 (UACC-62 melanoma) was greater than 100 µM, the TGI (UACC-62 melanoma) was greater than 100 µM and the GI50 (UO-31 renal) was 15.9 µM. It also gave a TGI (UO-31 renal) of 89 µM.
